Reference: patent US20250127907A1, “PARP INHIBITORS” (Stablix, Inc., priority 2023, published 2025)

Tests used:
MDA-MB-436 cells = test: Cell proliferation assay (MDA-MB-436); format: cell-based; details: Homo sapiens, 168 h, 7 days
PARP1 [1] = target: T1, PARP1 (Homo sapiens, UniProt P09874); test: PARP1-enzyme assay (NAD/NADH-Glo biochemical assay); details: recombinant PARP1, NAD+ consumption
Procedure: The PARP enzyme catalyzes the transfer of ADP-Ribose from NAD+ onto PAR chains/histone substrates. The catalytic cycle is monitored indirectly with the NAD/NADH-Glo Assay kit from Promega. […] NAD+ consumed is determined by comparison to the no enzyme control.
• Recombinant PARP1 • NAD+/NAHD-Glow assay Kit • Activated DNA, 10 μg/mL • NAD+(Nicotinamide Adenine Dinucleotide), 500 nM • Protein substrate for PARP1: Core Histone from chicken, 10 μg/mL
The letter codes for the PARP1-enzyme assay include: A (<1 nM), B (>1-10 nM), C (>10-100 nM), D (>100-1000 nM), E (>1000 nM), and “-” is not tested. The letter codes for the PARP trapping assay, and parylation assay include: A (<10 nM), B (>10-100 nM), C (>100-1000 nM), […], E (>10000 nM), and “-” is not tested.
Target sequence in this assay (P09874 whole entry, species assumed): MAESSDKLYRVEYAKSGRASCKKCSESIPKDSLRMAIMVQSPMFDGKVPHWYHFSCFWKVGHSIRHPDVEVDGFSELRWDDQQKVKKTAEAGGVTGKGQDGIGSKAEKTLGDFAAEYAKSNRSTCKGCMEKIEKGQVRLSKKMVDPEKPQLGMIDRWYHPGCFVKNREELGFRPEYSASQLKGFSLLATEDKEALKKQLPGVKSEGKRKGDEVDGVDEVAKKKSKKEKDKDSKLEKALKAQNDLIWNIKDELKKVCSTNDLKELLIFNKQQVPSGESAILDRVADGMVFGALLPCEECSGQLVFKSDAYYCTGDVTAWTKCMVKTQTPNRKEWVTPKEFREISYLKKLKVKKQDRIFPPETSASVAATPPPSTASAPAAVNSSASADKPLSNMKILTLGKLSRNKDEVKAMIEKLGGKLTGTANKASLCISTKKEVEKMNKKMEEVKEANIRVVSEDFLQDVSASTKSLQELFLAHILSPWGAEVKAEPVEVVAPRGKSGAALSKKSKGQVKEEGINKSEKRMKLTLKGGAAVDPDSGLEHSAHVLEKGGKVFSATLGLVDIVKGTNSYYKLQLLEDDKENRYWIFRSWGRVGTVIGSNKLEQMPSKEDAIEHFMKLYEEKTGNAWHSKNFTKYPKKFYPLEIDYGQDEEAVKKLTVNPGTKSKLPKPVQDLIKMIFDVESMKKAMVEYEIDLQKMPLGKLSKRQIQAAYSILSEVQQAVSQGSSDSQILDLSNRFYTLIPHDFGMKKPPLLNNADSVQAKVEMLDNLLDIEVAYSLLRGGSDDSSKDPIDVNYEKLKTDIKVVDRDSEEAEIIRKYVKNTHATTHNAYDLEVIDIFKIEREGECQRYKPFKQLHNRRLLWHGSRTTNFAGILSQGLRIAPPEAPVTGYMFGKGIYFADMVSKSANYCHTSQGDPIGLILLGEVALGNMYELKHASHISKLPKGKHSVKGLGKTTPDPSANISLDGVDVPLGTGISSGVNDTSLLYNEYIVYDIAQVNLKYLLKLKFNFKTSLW

HCC1806 cells = test: Cell proliferation assay (HCC1806); format: cell-based; details: Homo sapiens, 168 h, 7 days
[2] = system: Poly/Mono-ADP Ribose in U2OS cells; test: PAR in cell western assay (parylation) in U2OS cells; format: cell-based; details: Homo sapiens; U2OS cells, 6 hrs, 2 mM H2O2; read-out: Parylation (U2OS)
Outline: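 U2OS cells treated with compound for 6 h, then 2 mM H2O2 for 10 min to induce DNA damage. After methanol fixation, cells stained overnight at 4 °C with anti-mono/poly-ADP-ribose antibody and imaged by infrared in-cell western, normalized to CellTag 700; reported as % control inhibition.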

PARP1 [3] = target: T1, PARP1; test: PARP trapping assay in U2OS cells; format: cell-based; design: endogenous in cells; host or cells: U2OS; details: U2OS cells, MMS, 4 hrs; read-out: PARP Trapping (U2OS)
Outline: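 U2OS cells co-treated with compounds and MMS for 4 h, then soluble proteins extracted with 0.5% Triton X-100, MeOH-fixed and immunostained for PARP1. Chromatin-bound PARP1 quantified as AF488 intensity per DAPI-segmented nucleus; potencies reported as letter-code bins.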
Target sequence in this assay (P09874 whole entry): as the sequence (P09874 whole entry, species assumed) above

A2780 cells = test: Cell proliferation assay (A2780); format: cell-based; details: Homo sapiens, 168 h, 7 days

Row | SMILES | IC50 (MDA-MB-436 cells) | IC50 (PARP1 [1]) | IC50 (HCC1806 cells) | IC50 [2] | IC50 (PARP1 [3]) | IC50 (A2780 cells)
1 | COC12CCC(CNCC(=O)N3CCCC(c4cccc(C(=O)N[C@@H](C(=O)N5CCC(CN6CCN(CC(=O)N7CCN(C(=O)c8cc(Cc9n[nH]c(=O)c%10ccccc9%10)ccc8F)CC7)CC6)CC5)C5CCCCC5)c4)C3)(CC1)OC2 (stereo partly shown) [Compound I-165] | 10 to 100 nM | < 1 nM | < 10 nM | 100 to 1000 nM | 100 to 1000 nM | –
2 | CCOc1cc(OC)ccc1CNCC(=O)N1CCCC(c2cccc(C(=O)N[C@@H](C(=O)N3CCN(CC45CCC(C(=O)N6CCN(C(=O)c7cc(Cc8n[nH]c(=O)c9ccccc89)ccc7F)CC6)(CC4)CO5)CC3)C3CCCCC3)c2)C1 (stereo partly shown) [Compound I-166] | 10 to 100 nM | < 1 nM | < 10 nM | 100 to 1000 nM | 10 to 100 nM | –
3 | O=C(N[C@@H](C(=O)N1CCN(CC2CCN(CC(=O)N3CCN(C(=O)c4cc(Cc5n[nH]c(=O)c6ccccc56)ccc4F)CC3)CC2)CC1)C1CCCCC1)c1cccc([C@@H]2CCCN(C(=O)CNC3CC3)C2)c1 [Compound I-365] | 10 to 100 nM | < 1 nM | – | 10 to 100 nM | 100 to 1000 nM | 1000 to 10000 nM
4 | O=C(CNC1CC1)N1CCCC(c2cccc(C(=O)N3CCN(CC45CCC(C(=O)N6CCN(C(=O)c7cc(Cc8n[nH]c(=O)c9ccccc89)ccc7F)CC6)(CC4)CO5)CC3)c2)C1 (stereo not shown) [Compound I-377] | < 10 nM | < 1 nM | – | 10 to 100 nM | 10 to 100 nM | 10 to 100 nM
5 | CCc1cccc(-c2cnc(C(=O)N3CCC(OC4CCN(CC(=O)N5CCN(C(=O)c6cc(Cc7n[nH]c(=O)c8ccccc78)ccc6F)CC5)CC4)CC3)c(NC(C)=O)c2)c1 [Compound I-404] | < 10 nM | < 1 nM | – | 10 to 100 nM | 100 to 1000 nM | 10 to 100 nM

Other lines, results leading:

Row | IC50 (MDA-MB-436 cells) | IC50 (PARP1 [1]) | IC50 (HCC1806 cells) | IC50 [2] | IC50 (PARP1 [3]) | IC50 (A2780 cells) | SMILES
6 | 1000 to 10000 nM | < 1 nM | < 10 nM | < 10 nM | – | – | CCOc1cc(OC)ccc1CNCC(=O)N1CCCC(c2cccc(C(=O)N[C@@H](C(=O)NCc3cn(CCNCC(=O)N4CCN(C(=O)c5cc(Cc6n[nH]c(=O)c7ccccc67)ccc5F)CC4)nn3)C3CCCCC3)c2)C1 (stereo partly shown) [Compound I-29]
7 | 100 to 1000 nM | < 1 nM | < 10 nM | < 10 nM | – | – | CCOc1cc(OC)ccc1CNCC(=O)N1CCCC(c2cccc(C(=O)N[C@@H](C(=O)NCCOCCOCCOCCOCCNCC(=O)N3CCN(C(=O)c4cc(Cc5n[nH]c(=O)c6ccccc56)ccc4F)CC3)C3CCCCC3)c2)C1 (stereo partly shown) [Compound I-31]
8 | 10 to 100 nM | < 1 nM | < 10 nM | 100 to 1000 nM | 100 to 1000 nM | – | COC12CCC(CNCC(=O)N3CCCC(c4cccc(C(=O)N[C@@H](C(=O)N5CCN(CC6CCN(CC(=O)N7CCN(C(=O)c8cc(Cc9n[nH]c(=O)c%10ccccc9%10)ccc8F)CC7)CC6)CC5)C5CCCCC5)c4)C3)(CC1)OC2 (stereo partly shown) [Compound I-157]
9 | 10 to 100 nM | < 1 nM | – | 100 to 1000 nM | 10 to 100 nM | 10 to 100 nM | CCOc1cc(OC)ccc1COCC(=O)N1CCCC(c2cccc(C(=O)N[C@@H](C(=O)N3CCN(CC4CCN(CC(=O)N5CCN(C(=O)c6cc(Cc7n[nH]c(=O)c8ccccc78)ccc6F)CC5)CC4)CC3)C3CCCCC3)c2)C1 (stereo partly shown) [Compound I-354]
10 | < 10 nM | < 1 nM | – | 10 to 100 nM | 10 to 100 nM | 10 to 100 nM | CCc1cccc(-c2cnc(C(=O)N3CCC(CN4CCN(CC(=O)N5CCN(C(=O)c6cc(Cc7n[nH]c(=O)c8ccccc78)ccc6F)CC5)CC4)CC3)c(NC3CC3)c2)c1 [Compound I-407]
11 | < 10 nM | < 1 nM | – | 100 to 1000 nM | 100 to 1000 nM | 100 to 1000 nM | CCc1cccc(-c2cnc(C(=O)N3CCC(CN4CCN(CC(=O)N5CCN(C(=O)c6cc(Cc7n[nH]c(=O)c8ccccc78)ccc6F)CC5)CC4)CC3)c(NC)c2)c1 [Compound I-418]
12 | < 10 nM | < 1 nM | – | 100 to 1000 nM | 10 to 100 nM | 100 to 1000 nM | CCc1cccc(-c2cnc(C(=O)N3CCC(CN4CCN(CC(=O)N5CCN(C(=O)c6cc(Cc7n[nH]c(=O)c8ccccc78)ccc6F)CC5)CC4)CC3)c(OC(F)(F)F)c2)c1 [Compound I-420]
